From publication PMC7774954, “Interactomic affinity profiling by holdup assay: Acetylation and distal residues impact the PDZome-binding specificity of PTEN phosphatase” (PLoS ONE, 2020)
*1 amine or outer side, *2 acyl side, *3 side chain or, on linkers, in order; H or OH if unused. Where a SMILES comes first, the peptide text is derived from it. The star is where a group is joined. X1 = O=C(CCCC[C@@H]1SC[C@@H]2NC(=O)N[C@@H]21)NCCCOCCOCCOCCCN*; Suc = O=C(CCC(=O)[*:2])[*:1]

Experiments:
DLG1 PDZ 2 = target: T1, DLG1 PDZ 2 (Homo sapiens, UniProt Q12959); assay: Holdup assay, DLG1-2; assay type: binding; settings: for BI: DLG1-2
T1 construct: made in house; host or cells: E. coli
T1 sequence (Q12959 319-405 limits assumed): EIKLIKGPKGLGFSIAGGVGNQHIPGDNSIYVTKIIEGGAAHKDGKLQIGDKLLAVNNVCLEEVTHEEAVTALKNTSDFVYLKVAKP
Protocol: (§1) The holdup assay was performed on a Tecan freedom Evo200 robot with 384-well plates in singlicate for the three 11-mer PTEN variants and the 13-mer PTEN peptide as described in [31, 32]. Briefly, prior to interaction assay, 2.5 μL of streptavidin resin was saturated in each well with 20 μL of biotinylated PBM peptides (42 μM) and then washed twice with an excess of free biotin, while the reference resin was incubated only with biotin. Right before the holdup experiment, the PDZ library was spiked with an internal standard of lysozyme. Then, the biotin- or PBM-saturated resin was incubated, each in a distinct well of a 384-well plate, with complete cell lysates diluted so that the concentration of the tag-PDZ present in the crude extract is adjusted at 4 μM. After a sufficient time to reach complex equilibrium (15 min.), a fast and mild filtration step is performed and the tag-PDZ concentrations were measured by capillary electrophoresis instrument (LabChip GXII, PerkinElmer, Massachusets, USA). Standard markers were used to convert migration time into molecular weight on the LabChip software and inappropriate molecular weight markers were corrected or excluded.
(§2) For filtered data, the BI was extracted with the following equation (Eq 1) that estimates the depleted fraction after superimposition of the sample and reference electropherograms: BI=Iref−Ilig/Iref (1) where Iref and Ilig are the intensities of the tag-PDZ peaks measured, for each PDZ domain/PBM peptide interaction pair, in the biotin reference and the PBM electropherograms, respectively.
(§3) BIs were transformed into dissociation constants (KD) using the following formula: KD=([PDZtot]−BI·[PDZtot])·([PBMtot]−BI·[PDZtot])/BI·[PDZtot] (2) where [PDZtot] and [PBMtot] correspond to the total concentrations of the PDZ domain (usually around 4 μM) and the PBM peptide used during the assay. Since the PBMtot concentration in the resin during the holdup assay parameter may differ from one peptide to another and remains unknown, it is impossible to directly convert BI values into KD constants. We systematically determined the KD constants for a subset of PDZ/PBM pairs by competitive FP. […] For each PBM, the average peptide concentration was calculated after outlier rejection based on the absolute distances from the median as compared to three times the standard deviation (3σ rule), with never more than 2 values rejected.

MAGI2 PDZ 2 = target: T2, MAGI2 PDZ 2 (Homo sapiens, UniProt Q86UL8); assay: Holdup assay, MAGI2-2; assay type: binding; settings: for BI: MAGI2-2
T2 construct: made in house; host or cells: E. coli
T2 sequence (Q86UL8 426-510 limits assumed): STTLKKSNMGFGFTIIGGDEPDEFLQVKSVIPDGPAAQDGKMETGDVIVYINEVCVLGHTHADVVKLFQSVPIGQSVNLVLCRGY
Protocol: as §1, §2, §3

MAST3 PDZ 1 = target: T3, MAST3 PDZ 1 (Homo sapiens, UniProt O60307); assay: Holdup assay, MAST3-1; assay type: binding; settings: for BI: MAST3-1
T3 construct: made in house; host or cells: E. coli
T3 sequence (O60307 950-1038 limits assumed): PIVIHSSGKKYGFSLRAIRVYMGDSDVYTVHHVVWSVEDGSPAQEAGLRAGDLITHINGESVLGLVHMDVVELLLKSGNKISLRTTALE
Protocol: as §1, §2, §3

NHERF2 PDZ 1 = target: T4, NHERF2 PDZ 1 (Homo sapiens, UniProt Q15599); assay: Holdup assay, NHERF2-1; assay type: binding; settings: PDZ domain NHERF2-1
T4 construct: made in house; host or cells: E. coli
T4 sequence (Q15599 11-90 limits assumed): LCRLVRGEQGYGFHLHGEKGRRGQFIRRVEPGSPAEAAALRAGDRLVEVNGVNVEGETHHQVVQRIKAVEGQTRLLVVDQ
Protocol: as §1, §2, §3

APBA2-2 = assay: Holdup assay, APBA2-2; assay type: binding, human
CARD14-1 = assay: Holdup assay, CARD14-1; assay type: binding, human
DLG1-3 = assay: Holdup assay, DLG1-3; assay type: binding, human
DLG2-1 = DLG2-1 (Homo sapiens, UniProt Q15700); assay: Holdup assay, DLG2-1; assay type: binding
DLG5-2 = assay: Holdup assay, DLG5-2; assay type: binding, human
FRMPD1-1 = assay: Holdup assay, FRMPD1-1; assay type: binding, human
FRMPD4-1 = assay: Holdup assay, FRMPD4-1; assay type: binding, human
GORASP2-1 = GORASP2-1 (Homo sapiens, UniProt Q9H8Y8); assay: Holdup assay, GORASP2-1; assay type: binding
GRASP-1 = GRASP-1 (Homo sapiens, UniProt Q7Z6J2); assay: Holdup assay, GRASP-1; assay type: binding; settings: for BI: GRASP-1
GRASP-1, sequence (Q7Z6J2 100-189): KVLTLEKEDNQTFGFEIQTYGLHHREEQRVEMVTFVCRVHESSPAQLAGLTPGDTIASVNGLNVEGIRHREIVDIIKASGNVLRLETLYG

GRIP2-5 = assay: Holdup assay, GRIP2-5; assay type: binding, human
IL16-1 = assay: Holdup assay, IL16-1; assay type: binding, human
IL16-4 = assay: Holdup assay, IL16-4; assay type: binding, human
INADL-1 = assay: Holdup assay, INADL-1; assay type: binding, human
INADL-6 = INADL-6 (Homo sapiens, UniProt Q8NI35); assay: Holdup assay, INADL-6; assay type: binding
INADL-6, sequence (Q8NI35 whole entry): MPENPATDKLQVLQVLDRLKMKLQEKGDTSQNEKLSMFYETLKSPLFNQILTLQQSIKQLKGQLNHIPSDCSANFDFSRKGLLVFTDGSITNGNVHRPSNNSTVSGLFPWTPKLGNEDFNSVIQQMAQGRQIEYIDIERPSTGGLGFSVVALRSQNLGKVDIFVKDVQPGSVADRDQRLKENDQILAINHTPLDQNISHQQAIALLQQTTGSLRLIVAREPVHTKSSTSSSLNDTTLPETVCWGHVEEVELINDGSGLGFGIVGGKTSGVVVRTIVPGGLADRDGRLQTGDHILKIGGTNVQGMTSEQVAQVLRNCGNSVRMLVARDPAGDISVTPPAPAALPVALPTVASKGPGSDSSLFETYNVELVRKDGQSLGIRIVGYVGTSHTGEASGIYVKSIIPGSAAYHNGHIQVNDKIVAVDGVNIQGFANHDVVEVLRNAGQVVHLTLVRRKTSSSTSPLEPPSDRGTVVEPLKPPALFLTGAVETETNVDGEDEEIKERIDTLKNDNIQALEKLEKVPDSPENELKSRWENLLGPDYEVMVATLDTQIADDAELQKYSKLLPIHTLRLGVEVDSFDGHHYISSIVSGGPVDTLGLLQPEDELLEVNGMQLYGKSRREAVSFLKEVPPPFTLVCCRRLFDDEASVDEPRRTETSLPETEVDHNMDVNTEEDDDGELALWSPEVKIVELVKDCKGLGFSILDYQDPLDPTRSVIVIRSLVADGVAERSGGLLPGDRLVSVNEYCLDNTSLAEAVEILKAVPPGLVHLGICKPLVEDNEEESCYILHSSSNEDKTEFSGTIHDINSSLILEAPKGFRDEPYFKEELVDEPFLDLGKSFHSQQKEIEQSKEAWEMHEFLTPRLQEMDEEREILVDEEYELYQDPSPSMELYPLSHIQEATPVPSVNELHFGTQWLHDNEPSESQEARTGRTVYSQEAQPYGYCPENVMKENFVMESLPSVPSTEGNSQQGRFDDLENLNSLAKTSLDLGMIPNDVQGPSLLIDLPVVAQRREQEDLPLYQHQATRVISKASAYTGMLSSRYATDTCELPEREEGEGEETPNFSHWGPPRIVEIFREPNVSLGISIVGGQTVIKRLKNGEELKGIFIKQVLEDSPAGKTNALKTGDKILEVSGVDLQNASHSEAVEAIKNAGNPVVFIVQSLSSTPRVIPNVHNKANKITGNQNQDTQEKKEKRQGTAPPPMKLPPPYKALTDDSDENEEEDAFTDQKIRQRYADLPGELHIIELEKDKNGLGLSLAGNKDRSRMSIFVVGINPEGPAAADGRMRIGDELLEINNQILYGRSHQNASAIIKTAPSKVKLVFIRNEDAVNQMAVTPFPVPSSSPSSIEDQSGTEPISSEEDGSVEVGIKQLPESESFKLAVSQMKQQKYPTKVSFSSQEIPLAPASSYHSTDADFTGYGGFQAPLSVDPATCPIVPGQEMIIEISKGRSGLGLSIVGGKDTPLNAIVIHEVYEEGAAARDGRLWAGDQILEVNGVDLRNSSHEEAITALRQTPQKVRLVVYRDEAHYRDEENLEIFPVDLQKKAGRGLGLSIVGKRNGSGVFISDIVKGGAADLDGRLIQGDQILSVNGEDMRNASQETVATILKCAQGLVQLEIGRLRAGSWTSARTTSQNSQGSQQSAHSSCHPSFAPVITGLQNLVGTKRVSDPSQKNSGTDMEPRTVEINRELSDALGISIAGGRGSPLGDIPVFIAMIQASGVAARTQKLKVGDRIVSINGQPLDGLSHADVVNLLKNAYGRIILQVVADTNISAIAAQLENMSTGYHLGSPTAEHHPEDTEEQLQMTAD

INTU-1 = assay: Holdup assay, INTU-1; assay type: binding, human
LIN7A-1 = assay: Holdup assay, LIN7A-1; assay type: binding, human
LIN7B-1 = assay: Holdup assay, LIN7B-1; assay type: binding, human
MAGI1-1 = assay: Holdup assay, MAGI1-1; assay type: binding, human
MAGI1-5 = MAGI1-5 (Homo sapiens, UniProt Q96QZ7); assay: Holdup assay, MAGI1-5; assay type: binding
MAGI1-5, sequence (Q96QZ7 970-1066): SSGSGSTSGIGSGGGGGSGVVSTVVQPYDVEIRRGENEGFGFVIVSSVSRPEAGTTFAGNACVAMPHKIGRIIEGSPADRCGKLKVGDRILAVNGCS

CC[C@H](C)[C@H](NC(=O)[C@H](CCC(N)=O)NC(=O)[C@@H](NC(=O)[C@H](Cc1c[nH]cn1)NC(=O)[C@H](CCC(N)=O)NC(=O)[C@H](CC(=O)O)NC(=O)[C@H](CCC(=O)O)NC(=O)[C@H](CC(=O)O)NC(=O)[C@H](Cc1ccccc1)NC(=O)[C@@H]1CCCN1C(=O)CCC(=O)NCCCOCCOCCOCCCNC(=O)CCCC[C@@H]1SC[C@@H]2NC(=O)N[C@@H]21)[C@@H](C)O)C(=O)N[C@H](C(=O)N[C@@H](CCCCN)C(=O)N[C@H](C(=O)O)C(C)C)[C@@H](C)O [PTEN_13] ({X1-Suc}-PFDEDQHTQITKV-OH)
BI (DLG1 PDZ 2): 0.168
BI (MAGI2 PDZ 2): 0.082
BI (MAST3 PDZ 1): -0.161
BI (NHERF2 PDZ 1): 0.11
BI (APBA2-2): 0.041
BI (CARD14-1): -0.001
BI (DLG1-3): -0.033
BI (DLG2-1; DLG2-1): 0.035
LogKD (DLG2-1; DLG2-1): 3.826
BI (DLG5-2): -0.092
BI (FRMPD1-1): 0.081
BI (FRMPD4-1): -0.07
BI (GORASP2-1; GORASP2-1): 0.092
LogKD (GORASP2-1; GORASP2-1): 3.826
Kd (GRASP-1): 12.4 µM
BI (GRASP-1): 0.544
BI (GRIP2-5): -0.06
BI (IL16-1): 0.018
BI (IL16-4): 0.014
BI (INADL-1): 0.086
BI (INADL-6): 0.044
LogKD (INADL-6): 3.826
BI (INTU-1): -0.039
BI (LIN7A-1): -0.019
BI (LIN7B-1): -0.079
BI (MAGI1-1): -0.027
BI (MAGI1-5): 0.274
Kd (MAGI1-5): 42.1 µM

CC[C@H](C)[C@H](NC(=O)[C@H](CCC(N)=O)NC(=O)[C@@H](NC(=O)[C@H](Cc1c[nH]cn1)NC(=O)[C@H](CCC(N)=O)NC(=O)[C@H](CC(=O)O)NC(=O)[C@H](CCC(=O)O)NC(=O)[C@H](CC(=O)O)NC(=O)CCC(=O)NCCCOCCOCCOCCCNC(=O)CCCC[C@@H]1SC[C@@H]2NC(=O)N[C@@H]21)[C@@H](C)O)C(=O)N[C@H](C(=O)N[C@@H](CCCNC(=N)N)C(=O)N[C@H](C(=O)O)C(C)C)[C@@H](C)O [PTEN_KR] ({X1-Suc}-DEDQHTQITRV-OH)
Kd (DLG1 PDZ 2): 70.8 µM
BI (DLG1 PDZ 2): 0.253
Kd (MAGI2 PDZ 2): 29.2 µM
BI (MAGI2 PDZ 2): 0.443
Kd (MAST3 PDZ 1): 81.6 µM
BI (MAST3 PDZ 1): 0.228
BI (NHERF2 PDZ 1): 0.169
BI (APBA2-2): -0.002
LogKD (APBA2-2): 3.655
BI (CARD14-1): -0.077
LogKD (CARD14-1): 3.655
BI (DLG1-3): 0.077
LogKD (DLG1-3): 3.655
BI (DLG2-1; DLG2-1): 0.191
BI (DLG5-2): -0.028
LogKD (DLG5-2): 3.655
BI (FRMPD1-1): -0.047
LogKD (FRMPD1-1): 3.655
BI (FRMPD4-1): -0.051
LogKD (FRMPD4-1): 3.655
Kd (GORASP2-1): 16 µM
BI (GORASP2-1; GORASP2-1): 0.586
Kd (GRASP-1): 16.8 µM
BI (GRASP-1): 0.575
BI (GRIP2-5): 0.006
LogKD (GRIP2-5): 3.655
BI (IL16-1): 0.06
LogKD (IL16-1): 3.655
BI (IL16-4): 0.002
LogKD (IL16-4): 3.655
BI (INADL-1): 0.058
LogKD (INADL-1): 3.655
BI (INADL-6): 0.066
LogKD (INADL-6): 3.655
BI (INTU-1): -0.043
LogKD (INTU-1): 3.655
BI (LIN7A-1): -0.026
LogKD (LIN7A-1): 3.655
BI (LIN7B-1): -0.078
LogKD (LIN7B-1): 3.655
BI (MAGI1-1): -0.057
LogKD (MAGI1-1): 3.655
BI (MAGI1-5): 0.619
Kd (MAGI1-5): 13.9 µM

CC[C@H](C)[C@H](NC(=O)[C@H](CCC(N)=O)NC(=O)[C@@H](NC(=O)[C@H](Cc1c[nH]cn1)NC(=O)[C@H](CCC(N)=O)NC(=O)[C@H](CC(=O)O)NC(=O)[C@H](CCC(=O)O)NC(=O)[C@H](CC(=O)O)NC(=O)CCC(=O)NCCCOCCOCCOCCCNC(=O)CCCC[C@@H]1SC[C@@H]2NC(=O)N[C@@H]21)[C@@H](C)O)C(=O)N[C@H](C(=O)N[C@@H](CCCCNC(C)=O)C(=O)N[C@H](C(=O)O)C(C)C)[C@@H](C)O [PTEN_Ac]
Kd (DLG1 PDZ 2): 35.6 µM
BI (DLG1 PDZ 2): 0.425
Kd (MAGI2 PDZ 2): 55.5 µM
BI (MAGI2 PDZ 2): 0.325
Kd (MAST3 PDZ 1): 84.7 µM
BI (MAST3 PDZ 1): 0.242
BI (NHERF2 PDZ 1): 0.078
BI (APBA2-2): -0.03
LogKD (APBA2-2): 3.605
BI (DLG1-3): -0.088
LogKD (DLG1-3): 3.605
Kd (DLG2-1): 102 µM
BI (DLG2-1; DLG2-1): 0.211
BI (DLG5-2): 0.018
LogKD (DLG5-2): 3.605
BI (FRMPD1-1): -0.03
LogKD (FRMPD1-1): 3.605
BI (FRMPD4-1): -0.076
LogKD (FRMPD4-1): 3.605
Kd (GORASP2-1): 36.7 µM
BI (GORASP2-1; GORASP2-1): 0.418
Kd (GRASP-1): 8.02 µM
BI (GRASP-1): 0.757
BI (GRIP2-5): 0.067
LogKD (GRIP2-5): 3.605
BI (IL16-1): 0.039
LogKD (IL16-1): 3.605
BI (IL16-4): 0.014
LogKD (IL16-4): 3.605
BI (INADL-1): 0.004
LogKD (INADL-1): 3.605
BI (INADL-6): 0.316
Kd (INADL-6): 57.9 µM
BI (INTU-1): 0.042
LogKD (INTU-1): 3.605
BI (LIN7A-1): -0.07
LogKD (LIN7A-1): 3.605
BI (LIN7B-1): -0.004
LogKD (LIN7B-1): 3.605
BI (MAGI1-1): 0.034
LogKD (MAGI1-1): 3.605
BI (MAGI1-5): 0.647
Kd (MAGI1-5): 13.9 µM
